Source: ChEMBL document CHEMBL1909046, “DrugMatrix in vitro pharmacology data”

Assays:
Melanocortin receptor 3 = Melanocortin receptor 3 (Homo sapiens, UniProt P41968); format: cell membranes, Membrane; conditions: hek293; note: in other assays of this panel Not Active means under 50% inhibition at 10 µM
[1] = target: C-C chemokine receptor type 5 (Homo sapiens, UniProt P51681); format: cell membranes, Membrane; conditions: hek293; note: in other assays of this panel Not Active means under 50% inhibition at 10 µM
[2] = target: Mitogen-activated protein kinase 14 (Homo sapiens, UniProt Q16539); parameters: species or system Escherichia coli;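 note: inhibition of p38alpha enzyme activity in a biochemical kinase assay, with myelin basic protein serving as substrate; in other assays of this panel Not Active means under 50% inhibition at 10 µM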
[3] = target: Receptor tyrosine-protein kinase erbB-2 (Homo sapiens, UniProt P04626); assay: biochemical; format: cell-based, Insect cells;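 note: inhibition of HER2 kinase enzyme activity, measured with Poly(Glu:Tyr) as the phosphorylation substrate; in other assays of this panel Not Active means under 50% inhibition at 10 µM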
[4] = target: Mitogen-activated protein kinase 1 (Homo sapiens, UniProt P28482); assay: DRUGMATRIX: Protein Serine/Threonine Kinase, ERK2 enzyme inhibition (substrate: Myelin Basic Protein); parameters: species or system Escherichia coli; conditions: Not Active = under 50% inhibition at 10 µM
[5] = DRUGMATRIX: Sodium/nucleoside co-transporter radioligand binding (ligand: nitrobenzylthioinosine); format: cell membranes, Cavia porcellus, Dunkin-Hartley, Cerebral cortex, Membrane; conditions: Not Active = under 50% inhibition at 10 µM
[6] = target: T1, C-X-C chemokine receptor type 2 (Homo sapiens, UniProt P25025); format: cell membranes, Membrane; conditions: cho-k1; note: in other assays of this panel Not Active means under 50% inhibition at 10 µM
T1 sequence (P25025 whole entry): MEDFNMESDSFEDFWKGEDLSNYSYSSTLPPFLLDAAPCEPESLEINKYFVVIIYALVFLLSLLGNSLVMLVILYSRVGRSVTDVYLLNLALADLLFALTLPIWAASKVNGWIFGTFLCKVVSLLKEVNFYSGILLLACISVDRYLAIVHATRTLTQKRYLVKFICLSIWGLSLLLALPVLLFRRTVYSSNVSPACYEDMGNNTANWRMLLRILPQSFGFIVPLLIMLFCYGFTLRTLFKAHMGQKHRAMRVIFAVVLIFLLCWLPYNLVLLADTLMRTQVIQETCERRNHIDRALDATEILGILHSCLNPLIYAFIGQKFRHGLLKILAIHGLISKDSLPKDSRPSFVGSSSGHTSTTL

[7] = DRUGMATRIX: Platelet-Derived Growth Factor (PDGF) radioligand binding (ligand: [125I] PDGF); format: cell-based; conditions: nih3t3; Not Active = under 50% inhibition at 10 µM
Thromboxane-A synthase = target: T2, Thromboxane-A synthase (Homo sapiens, UniProt P24557); assay: biochemical; format: tissue-based, Platelet
T2 sequence (P24557 whole entry): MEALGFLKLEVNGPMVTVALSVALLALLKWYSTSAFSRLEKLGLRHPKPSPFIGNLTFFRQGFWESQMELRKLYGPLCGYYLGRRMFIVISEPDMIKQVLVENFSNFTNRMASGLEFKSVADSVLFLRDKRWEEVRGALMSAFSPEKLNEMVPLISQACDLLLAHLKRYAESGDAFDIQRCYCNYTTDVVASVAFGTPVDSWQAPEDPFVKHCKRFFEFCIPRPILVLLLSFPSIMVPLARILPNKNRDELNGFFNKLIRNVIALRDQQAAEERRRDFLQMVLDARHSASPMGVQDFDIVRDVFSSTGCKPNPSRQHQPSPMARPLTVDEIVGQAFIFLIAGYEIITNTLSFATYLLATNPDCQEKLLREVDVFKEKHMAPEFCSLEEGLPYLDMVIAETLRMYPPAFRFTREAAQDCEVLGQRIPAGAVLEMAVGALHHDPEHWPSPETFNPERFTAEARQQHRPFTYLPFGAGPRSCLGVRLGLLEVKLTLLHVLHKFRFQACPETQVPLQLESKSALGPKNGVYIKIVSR

[8] = target: T3, Alpha-2C adrenergic receptor (Homo sapiens, UniProt P18825); assay: DRUGMATRIX: Adrenergic Alpha-2C radioligand binding (ligand: [3H] MK-912); format: cell membranes, Sf9, Membrane; conditions: sf9
T3 sequence (P18825 whole entry): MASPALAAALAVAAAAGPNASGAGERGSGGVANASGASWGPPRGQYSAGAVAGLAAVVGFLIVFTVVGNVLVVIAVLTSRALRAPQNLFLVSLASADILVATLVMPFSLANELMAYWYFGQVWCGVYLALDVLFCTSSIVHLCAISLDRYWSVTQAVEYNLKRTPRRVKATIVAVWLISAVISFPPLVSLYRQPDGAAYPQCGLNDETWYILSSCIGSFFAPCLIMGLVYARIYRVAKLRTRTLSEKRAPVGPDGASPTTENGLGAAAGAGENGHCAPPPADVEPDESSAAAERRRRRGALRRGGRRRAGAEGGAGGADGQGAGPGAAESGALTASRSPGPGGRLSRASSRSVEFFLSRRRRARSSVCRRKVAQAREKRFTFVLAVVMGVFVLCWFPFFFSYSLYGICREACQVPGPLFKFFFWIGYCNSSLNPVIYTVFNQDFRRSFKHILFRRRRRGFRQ

[9] = target: C-C chemokine receptor type 2 (Homo sapiens, UniProt P41597); format: cell membranes, CHO-K1, Membrane; conditions: cho-k1; note: in other assays of this panel Not Active means under 50% inhibition at 10 µM
[10] = target: Mitogen-activated protein kinase 3 (Homo sapiens, UniProt P27361); assay: DRUGMATRIX: Protein Serine/Threonine Kinase, ERK1 enzyme inhibition (substrate: Myelin Basic Protein); parameters: species or system Escherichia coli; conditions: Not Active = under 50% inhibition at 10 µM
Progesterone receptor = target: T4, Progesterone receptor (Bos taurus, UniProt Q690N0); assay: DRUGMATRIX: Progesterone radioligand binding (ligand: [3H] R-5020); format: tissue-based, Uterus; conditions: Not Active = under 50% inhibition at 10 µM
T4 sequence (Q690N0 whole entry): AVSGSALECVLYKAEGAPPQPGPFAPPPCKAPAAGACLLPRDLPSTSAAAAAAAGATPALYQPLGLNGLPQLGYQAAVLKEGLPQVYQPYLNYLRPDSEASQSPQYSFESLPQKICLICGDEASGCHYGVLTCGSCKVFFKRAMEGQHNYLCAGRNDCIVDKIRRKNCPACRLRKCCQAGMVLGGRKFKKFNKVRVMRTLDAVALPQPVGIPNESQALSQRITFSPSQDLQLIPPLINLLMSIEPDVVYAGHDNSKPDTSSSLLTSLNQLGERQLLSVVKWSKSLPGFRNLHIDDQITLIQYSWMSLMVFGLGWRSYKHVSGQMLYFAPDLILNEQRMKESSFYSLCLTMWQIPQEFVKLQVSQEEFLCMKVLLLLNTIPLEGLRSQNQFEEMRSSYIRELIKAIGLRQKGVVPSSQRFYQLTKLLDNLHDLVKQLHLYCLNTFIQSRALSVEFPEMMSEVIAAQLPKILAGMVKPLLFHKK

[11] = target: Sodium-dependent dopamine transporter (Homo sapiens, UniProt Q01959); assay: DRUGMATRIX: Dopamine Transporter radioligand binding (ligand: [125I] RTI-55); format: cell membranes, CHO-K1, Membrane; conditions: cho-k1; Not Active = under 50% inhibition at 10 µM
Sodium-dependent dopamine transporter, sequence (Q01959 whole entry): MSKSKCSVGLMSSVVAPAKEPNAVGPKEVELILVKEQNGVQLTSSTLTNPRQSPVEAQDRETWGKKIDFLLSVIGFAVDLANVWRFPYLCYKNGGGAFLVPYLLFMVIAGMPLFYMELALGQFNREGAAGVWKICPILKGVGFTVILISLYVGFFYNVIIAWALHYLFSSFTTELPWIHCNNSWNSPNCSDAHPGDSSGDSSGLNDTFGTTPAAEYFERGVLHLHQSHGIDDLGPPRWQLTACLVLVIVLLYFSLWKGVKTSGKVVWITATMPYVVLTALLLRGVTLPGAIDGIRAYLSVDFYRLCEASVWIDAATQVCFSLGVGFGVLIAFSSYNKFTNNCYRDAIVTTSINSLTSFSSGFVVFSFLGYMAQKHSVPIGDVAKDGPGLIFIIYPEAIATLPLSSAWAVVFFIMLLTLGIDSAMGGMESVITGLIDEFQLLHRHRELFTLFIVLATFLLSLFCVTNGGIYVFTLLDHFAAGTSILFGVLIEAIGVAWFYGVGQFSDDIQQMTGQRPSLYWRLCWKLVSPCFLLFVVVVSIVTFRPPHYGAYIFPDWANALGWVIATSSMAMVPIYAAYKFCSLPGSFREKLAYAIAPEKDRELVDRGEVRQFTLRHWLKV

Mitogen-activated protein kinase 3, sequence (P27361 whole entry): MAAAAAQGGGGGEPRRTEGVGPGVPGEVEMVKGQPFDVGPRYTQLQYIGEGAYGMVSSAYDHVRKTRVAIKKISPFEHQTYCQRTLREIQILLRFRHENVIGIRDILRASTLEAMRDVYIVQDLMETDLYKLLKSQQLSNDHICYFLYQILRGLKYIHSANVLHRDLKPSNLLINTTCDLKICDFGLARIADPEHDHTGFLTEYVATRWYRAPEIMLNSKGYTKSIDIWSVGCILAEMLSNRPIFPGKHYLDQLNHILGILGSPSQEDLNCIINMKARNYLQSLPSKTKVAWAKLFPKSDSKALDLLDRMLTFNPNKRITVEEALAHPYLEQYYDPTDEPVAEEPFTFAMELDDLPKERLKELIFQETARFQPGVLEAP
Mitogen-activated protein kinase 14, sequence (Q16539 whole entry): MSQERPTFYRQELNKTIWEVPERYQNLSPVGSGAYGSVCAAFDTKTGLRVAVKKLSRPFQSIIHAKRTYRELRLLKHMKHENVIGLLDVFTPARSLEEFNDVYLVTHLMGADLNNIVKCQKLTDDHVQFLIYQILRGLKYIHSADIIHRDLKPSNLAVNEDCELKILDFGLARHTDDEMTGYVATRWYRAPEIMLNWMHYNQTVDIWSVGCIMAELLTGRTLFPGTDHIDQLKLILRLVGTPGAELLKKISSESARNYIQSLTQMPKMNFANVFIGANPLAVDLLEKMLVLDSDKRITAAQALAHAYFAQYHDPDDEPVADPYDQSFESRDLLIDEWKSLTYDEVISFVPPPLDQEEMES
Mitogen-activated protein kinase 1, sequence (P28482 whole entry): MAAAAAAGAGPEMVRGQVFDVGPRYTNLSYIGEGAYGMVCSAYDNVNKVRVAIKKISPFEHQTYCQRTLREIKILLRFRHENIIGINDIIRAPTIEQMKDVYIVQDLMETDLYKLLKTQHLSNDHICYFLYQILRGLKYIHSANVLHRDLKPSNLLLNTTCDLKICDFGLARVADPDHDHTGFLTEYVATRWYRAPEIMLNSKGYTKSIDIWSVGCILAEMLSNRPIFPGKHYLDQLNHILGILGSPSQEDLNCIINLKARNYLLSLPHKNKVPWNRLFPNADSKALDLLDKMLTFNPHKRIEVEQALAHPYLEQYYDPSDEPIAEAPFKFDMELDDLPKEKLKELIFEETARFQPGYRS
C-C chemokine receptor type 5, sequence (P51681 whole entry): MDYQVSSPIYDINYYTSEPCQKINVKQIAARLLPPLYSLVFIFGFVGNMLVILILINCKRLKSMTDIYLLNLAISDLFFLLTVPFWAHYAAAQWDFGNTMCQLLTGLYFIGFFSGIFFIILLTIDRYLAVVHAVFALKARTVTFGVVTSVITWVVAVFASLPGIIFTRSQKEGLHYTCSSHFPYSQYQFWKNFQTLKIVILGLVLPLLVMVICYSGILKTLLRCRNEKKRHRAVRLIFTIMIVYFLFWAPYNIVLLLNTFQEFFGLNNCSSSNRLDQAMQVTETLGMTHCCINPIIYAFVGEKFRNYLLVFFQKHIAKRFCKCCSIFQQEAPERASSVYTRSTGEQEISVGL
Receptor tyrosine-protein kinase erbB-2, sequence (P04626 whole entry): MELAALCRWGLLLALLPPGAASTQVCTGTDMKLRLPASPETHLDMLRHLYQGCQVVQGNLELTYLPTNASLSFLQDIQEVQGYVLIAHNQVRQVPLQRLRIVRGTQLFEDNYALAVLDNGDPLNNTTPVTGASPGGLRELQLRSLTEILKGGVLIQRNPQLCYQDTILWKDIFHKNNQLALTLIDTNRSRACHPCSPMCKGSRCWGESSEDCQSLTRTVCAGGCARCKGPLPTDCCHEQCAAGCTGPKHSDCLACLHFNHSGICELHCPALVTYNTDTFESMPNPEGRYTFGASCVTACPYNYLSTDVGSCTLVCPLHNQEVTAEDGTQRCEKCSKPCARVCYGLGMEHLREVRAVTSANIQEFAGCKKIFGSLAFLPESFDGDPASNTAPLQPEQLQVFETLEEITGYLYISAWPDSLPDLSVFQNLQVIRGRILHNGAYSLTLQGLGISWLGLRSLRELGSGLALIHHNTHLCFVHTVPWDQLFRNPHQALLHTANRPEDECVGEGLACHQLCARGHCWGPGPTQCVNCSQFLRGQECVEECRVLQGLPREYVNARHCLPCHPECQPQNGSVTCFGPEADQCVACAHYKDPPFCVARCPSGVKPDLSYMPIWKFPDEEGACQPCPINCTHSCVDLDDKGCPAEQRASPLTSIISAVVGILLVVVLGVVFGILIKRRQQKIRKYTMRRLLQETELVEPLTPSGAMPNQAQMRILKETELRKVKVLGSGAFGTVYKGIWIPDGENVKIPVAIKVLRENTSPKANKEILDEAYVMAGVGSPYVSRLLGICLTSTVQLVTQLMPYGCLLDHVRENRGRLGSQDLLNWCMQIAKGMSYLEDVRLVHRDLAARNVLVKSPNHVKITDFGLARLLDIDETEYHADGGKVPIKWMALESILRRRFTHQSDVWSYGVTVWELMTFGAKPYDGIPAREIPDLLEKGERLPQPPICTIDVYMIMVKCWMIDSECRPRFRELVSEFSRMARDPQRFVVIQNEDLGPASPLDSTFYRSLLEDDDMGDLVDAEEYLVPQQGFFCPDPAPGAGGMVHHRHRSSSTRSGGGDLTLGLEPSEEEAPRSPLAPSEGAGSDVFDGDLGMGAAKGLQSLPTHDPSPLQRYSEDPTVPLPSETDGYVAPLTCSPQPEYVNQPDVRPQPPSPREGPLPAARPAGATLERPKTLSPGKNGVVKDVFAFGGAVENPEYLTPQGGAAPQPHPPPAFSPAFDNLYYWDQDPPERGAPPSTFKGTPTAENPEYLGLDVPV
Melanocortin receptor 3, sequence (P41968 whole entry): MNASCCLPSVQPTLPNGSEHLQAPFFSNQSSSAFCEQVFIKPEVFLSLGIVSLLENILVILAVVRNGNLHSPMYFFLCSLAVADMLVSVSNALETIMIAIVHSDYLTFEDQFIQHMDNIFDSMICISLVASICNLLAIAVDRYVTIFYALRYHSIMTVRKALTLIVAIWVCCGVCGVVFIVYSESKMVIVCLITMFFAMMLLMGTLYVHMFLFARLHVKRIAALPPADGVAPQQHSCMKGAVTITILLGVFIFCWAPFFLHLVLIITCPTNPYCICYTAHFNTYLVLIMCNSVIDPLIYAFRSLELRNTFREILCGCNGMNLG
C-C chemokine receptor type 2, sequence (P41597 whole entry): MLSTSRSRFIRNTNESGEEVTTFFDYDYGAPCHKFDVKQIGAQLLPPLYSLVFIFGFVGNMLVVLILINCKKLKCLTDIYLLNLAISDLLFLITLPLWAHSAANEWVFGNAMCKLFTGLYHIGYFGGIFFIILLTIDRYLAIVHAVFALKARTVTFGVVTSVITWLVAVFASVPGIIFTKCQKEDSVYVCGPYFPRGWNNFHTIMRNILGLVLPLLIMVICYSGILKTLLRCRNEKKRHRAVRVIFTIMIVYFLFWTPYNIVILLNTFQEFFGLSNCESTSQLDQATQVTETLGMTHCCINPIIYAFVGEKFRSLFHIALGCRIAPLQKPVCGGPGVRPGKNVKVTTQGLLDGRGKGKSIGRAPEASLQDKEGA

In the case of `Nc1nnc(-c2cccc(Cl)c2Cl)c(N)n1` [LAMOTRIGINE], the IC50 (Melanocortin receptor 3) is reported as “Not Active”, the IC50 [1] is reported as “Not Active” and the IC50 [2] is reported as “Not Active”. For the same compound, the IC50 ([3]; insect cells) was “Not Active”, the IC50 [4] was “Not Active” and the IC50 [5] was “Not Active”. The Ki [5] was “Not Active”, the IC50 [6] was “Not Active” and the IC50 [7] was “Not Active”. For the same compound, the Ki [7] was “Not Active”, the IC50 (Thromboxane-A synthase; platelet) was “Not Active” and the IC50 [8] was “Not Active”. For the same compound, the IC50 [9] was “Not Active”, the IC50 [10] was “Not Active” and the IC50 (Progesterone receptor) was “Not Active”. For the same compound, the IC50 [11] was “Not Active”.

For `CC(C)(C)NCC(O)c1cc(O)cc(O)c1` (stereo not given) [TERBUTALINE], the IC50 (Melanocortin receptor 3) was “Not Active”, the IC50 [1] was “Not Active” and the IC50 [2] was “Not Active”. The IC50 ([3]; insect cells) was “Not Active”, the IC50 [4] was “Not Active” and the IC50 [5] was “Not Active”. For the same compound, the Ki [5] was “Not Active”, the IC50 [6] was “Not Active” and the IC50 [7] was “Not Active”. For the same compound, the Ki [7] was “Not Active”, the IC50 (Thromboxane-A synthase; platelet) was “Not Active” and the IC50 [8] was “Not Active”. The IC50 [9] was “Not Active”, the IC50 [10] was “Not Active” and the IC50 (Progesterone receptor) was “Not Active”. For the same compound, the IC50 [11] was “Not Active”.

In the case of `O=[N+]([O-])c1cc([As](=O)(O)O)ccc1O` [ROXARSONE], the IC50 (Melanocortin receptor 3) is reported as “Not Active”, the Ki (Melanocortin receptor 3) is reported as “Not Active” and the IC50 [1] is reported as “Not Active”. The Ki [1] was “Not Active”, the IC50 [2] was “Not Active” and the Ki [2] was “Not Active”. The IC50 ([3]; insect cells) was “Not Active”, the Ki ([3]; insect cells) was “Not Active” and the IC50 [4] was “Not Active”. The Ki [4] was “Not Active”, the IC50 [5] was “Not Active” and the Ki [5] was “Not Active”. For the same compound, the IC50 [6] was “Not Active”, the Ki [6] was “Not Active” and the IC50 [7] was “Not Active”. For the same compound, the Ki [7] was “Not Active”, the IC50 (Thromboxane-A synthase; platelet) was “Not Active” and the Ki (Thromboxane-A synthase; platelet) was “Not Active”. The IC50 [8] was “Not Active”, the Ki [8] was “Not Active” and the IC50 [9] was “Not Active”. For the same compound, the Ki [9] was “Not Active”, the IC50 [10] was “Not Active” and the Ki [10] was “Not Active”. For the same compound, the IC50 (Progesterone receptor) was “Not Active”, the Ki (Progesterone receptor) was “Not Active” and the IC50 [11] was “Not Active”. The Ki [11] was “Not Active”.

For `CC(C)(C)NC(=O)[C@@H]1CN(Cc2cccnc2)CCN1C[C@@H](O)C[C@@H](Cc1ccccc1)C(=O)N[C@H]1c2ccccc2C[C@H]1O.O`, the IC50 (Melanocortin receptor 3) was “Not Active”, the IC50 [1] was “Not Active” and the IC50 [2] was “Not Active”. For the same compound, the IC50 ([3]; insect cells) was “Not Active”, the IC50 [4] was “Not Active” and the IC50 [5] was “Not Active”. The Ki [5] was “Not Active”, the IC50 [6] was “Not Active” and the IC50 [7] was “Not Active”. The Ki [7] was “Not Active”, the IC50 (Thromboxane-A synthase; read-out: IC50) was 1850 nM and the IC50 [8] was “Not Active”. For the same compound, the IC50 [9] was “Not Active”, the IC50 [10] was “Not Active” and the IC50 (Progesterone receptor) was “Not Active”. The IC50 [11] was “Not Active”.

For `Nc1ccc(S(N)(=O)=O)cc1` [SULFANILAMIDE], the IC50 (Melanocortin receptor 3) was “Not Active”, the IC50 [1] was “Not Active” and the IC50 [2] was “Not Active”. The IC50 ([3]; insect cells) was “Not Active”, the IC50 [4] was “Not Active” and the IC50 [5] was “Not Active”. The Ki [5] was “Not Active”, the IC50 [6] was “Not Active” and the IC50 [7] was “Not Active”. The Ki [7] was “Not Active”, the IC50 (Thromboxane-A synthase; platelet) was “Not Active” and the IC50 [8] was “Not Active”. For the same compound, the IC50 [9] was “Not Active”, the IC50 [10] was “Not Active” and the IC50 (Progesterone receptor) was “Not Active”. For the same compound, the IC50 [11] was “Not Active”.

For `Cc1ncc([N+](=O)[O-])n1CC(C)O` (stereo not given) [SECNIDAZOLE], the IC50 (Melanocortin receptor 3) was “Not Active”, the IC50 [1] was “Not Active” and the IC50 [2] was “Not Active”. For the same compound, the IC50 ([3]; insect cells) was “Not Active”, the IC50 [4] was “Not Active” and the IC50 [5] was “Not Active”. For the same compound, the Ki [5] was “Not Active”, the IC50 [6] was “Not Active” and the IC50 [7] was “Not Active”. For the same compound, the Ki [7] was “Not Active”, the IC50 (Thromboxane-A synthase; platelet) was “Not Active” and the IC50 [8] was “Not Active”. The IC50 [9] was “Not Active”, the IC50 [10] was “Not Active” and the IC50 (Progesterone receptor) was “Not Active”. The IC50 [11] was “Not Active”.

In the case of `Oc1c(I)cc(I)c2cccnc12` [IODOQUINOL], the IC50 (Melanocortin receptor 3) is reported as “Not Active”, the IC50 [1] is reported as “Not Active” and the IC50 ([2]; read-out: IC50) is reported as 364 nM. For the same compound, the IC50 ([3]; read-out: IC50) was 8580 nM, the IC50 ([4]; read-out: IC50) was 294 nM and the IC50 [5] was “Not Active”. The Ki [5] was “Not Active”, the IC50 [6] was “Not Active” and the IC50 [7] was “Not Active”. For the same compound, the Ki [7] was “Not Active”, the IC50 (Thromboxane-A synthase; platelet) was “Not Active” and the IC50 [8] was “Not Active”. The IC50 [9] was “Not Active”, the IC50 ([10]; read-out: IC50) was 5260 nM and the IC50 (Progesterone receptor) was “Not Active”. The IC50 [11] was “Not Active”.

In the case of `NNC(=O)c1ccncc1` [ISONIAZID], the IC50 (Melanocortin receptor 3) is reported as “Not Active”, the IC50 [1] is reported as “Not Active” and the IC50 [2] is reported as “Not Active”. The IC50 ([3]; insect cells) was “Not Active”, the IC50 [4] was “Not Active” and the IC50 [5] was “Not Active”. For the same compound, the Ki [5] was “Not Active”, the IC50 [6] was “Not Active” and the IC50 [7] was “Not Active”. For the same compound, the Ki [7] was “Not Active”, the IC50 (Thromboxane-A synthase; platelet) was “Not Active” and the IC50 [8] was “Not Active”. For the same compound, the IC50 [9] was “Not Active”, the IC50 [10] was “Not Active” and the IC50 (Progesterone receptor) was “Not Active”. For the same compound, the IC50 [11] was “Not Active”.
